Assays:
Assay in all cases: greenhouse post-emergence herbicidal treatment
Assay type in all cases: in vivo
Settings in all cases: application rates of 0.25 or 0.125 kg/ha
Polygonum persicaria = test system: Polygonum persicaria
Excerpt: (§1) The seeds of the test plants were sown separately for each species. For the post-emergence treatment, the test plants were first grown to a height of from 3 to 15 cm, depending on the plant habit, and only then treated with the active compounds which had been suspended or emulsified in water. The test plants were for this purpose either sown directly and grown in the same containers., or they were first grown separately as seedlings and transplanted into the test containers a few days prior to treatment. The application rate for the post-emergence treatment was 0.25 or 0.125 kg of a.s. (active substance)/ha. Depending on the species, the plants were kept at 10-25° C. or 20-35° C. The test period extended over 2 to 4 weeks. During this time, the plants were tended, and their response to the individual treatments was evaluated. Evaluation was carried out using a scale from 0 to 100. 100 means no emergence of the plants, or complete destruction of at least the above-ground parts and 0 means no damage, or normal course of growth. The plants used in the greenhouse experiments were of the following species: [table]

Amaranthus retroflexus = test system: Amaranthus retroflexus
Excerpt: as §1

Chenopodium album = test system: Chenopodium album
Excerpt: as §1

Pharbitis purpurea = test system: Pharbitis purpurea
Excerpt: as §1

Galium aparine = test system: Galium aparine
Excerpt: as §1

Cc1cnc(-n2ccc(C(F)(F)F)n2)nc1Oc1csc(C(F)(F)F)c1 [I 1.1, 5-methyl-2-[3-(trifluoromethyl)-1H-pyrazol-1-yl]-4-{[5-(trifluoromethyl)-3-thienyl]oxy}pyrimidine]
very good: post-emergence action against Polygonum persicaria (Polygonum persicaria) | post-emergence action against Amaranthus retroflexus (Amaranthus retroflexus) | post-emergence action against Chenopodium album (Chenopodium album) | post-emergence action against Pharbitis purpurea (Pharbitis purpurea) | post-emergence action against Galium aparine (Galium aparine)
